In ChEMBL document CHEMBL5053532, “Bradykinin-Potentiating Peptide-Paclitaxel Conjugate Directed at Ectopically Expressed Angiotensin-Converting Enzyme in Triple-Negative Breast Cancer” (J Med Chem, 2021):
The source made the active and inactive calls. No cut-off for these calls is given here. Where a SMILES comes first, the peptide text is derived from it. The star is where a group is joined. Paclitaxel(2'-O-succinyl) = CC(=O)O[C@H]1C(=O)[C@@]2(C)[C@H]([C@H](OC(=O)c3ccccc3)[C@]3(O)C[C@H](OC(=O)[C@H](OC(=O)CCC(=O)*)[C@@H](NC(=O)c4ccccc4)c4ccccc4)C(C)=C1C3(C)C)[C@]1(OC(C)=O)CO[C@@H]1C[C@@H]2O

Tests used:
[1] = Drug uptake in BALB/c mouse xenografted with human […] cells assessed as PTX level in kidney at 17.6 micromol/kg, ip measured after 15 mins to 24 hrs; assay type: ADME, organism-based; conditions: in vivo, 0.25 h, dose 17.6 µmol/kg
[2] = Acute toxicity in BALB/c mouse assessed as survival at 80 mg/kg, ip measured for 15 days; assay type: organism-based; conditions: in vivo, 360 h, time 15 day
[3] = Acute toxicity in BALB/c mouse assessed as survival at 100 mg/kg, ip measured for 15 days; assay type: organism-based; conditions: in vivo, 360 h, time 15 day
[4] = Acute toxicity in BALB/c mouse assessed as rate of weight loss at 80 mg/kg, ip measured for 15 days; assay type: organism-based; conditions: in vivo, 360 h, time 15 day
[5] = Drug uptake in BALB/c mouse xenografted with human […] cells assessed as PTX level in tumor at 17.6 micromol/kg, ip measured after 4 hrs; assay type: ADME, organism-based, Neoplasm; conditions: in vivo, dose 17.6 µmol/kg
MDA-MB-468 [6] = assay: Antitumor activity in human […] cells xenografted in Balb/c mouse assessed as reduction in tumor growth at 2.4 micromol/kg, ip measured after 4 days; assay type: functional, organism-based; conditions: dose 2.4 µmol/kg, time 4.0 day
MDA-MB-468 [7] = assay: Induction of apoptosis in ACE-positive human MDA-MB-468 cells assessed as increase in apoptotic cells at 10 nM measured after 48 hrs by Annexin V-FITC/PI staining based fluorescence microscopy; assay type: functional, cell-based
[8] = Drug uptake in human MDA-MB-468 cells assessed as increase in PTX uptake rate at 10 to 20 uM measured after 2 hrs; assay type: ADME, cell-based; conditions: mda-mb-468, 2 h, dose 10-20 µM
[9] = Drug uptake in BALB/c mouse xenografted with human […] cells assessed as PTX level in tumor at 17.6 micromol/kg, ip measured after 1 hr; assay type: ADME, organism-based, Neoplasm; conditions: in vivo, dose 17.6 µmol/kg
MDA-MB-468 [10] = assay: Antiproliferative activity against ACE-positive human MDA-MB-468 cells incubated for 48 hrs by MTT assay; assay type: functional, cell-based; conditions: MDA-MB-468, 48 h
[11] = Drug uptake in BALB/c mouse xenografted with human […] cells assessed as PTX level in liver at 17.6 micromol/kg, ip measured after 15 mins to 24 hrs; assay type: ADME, organism-based; conditions: in vivo, 0.25 h, dose 17.6 µmol/kg
MDA-MB-468 [12] = assay: Antitumor activity in human […] cells xenografted in Balb/c mouse assessed as tumor weight at 2.4 micromol/kg, ip measured after 28 days (reference value: 0.43 g); assay type: functional; conditions: dose 2.4 µmol/kg, time 28 day
MDA-MB-231 [13] = assay: Induction of apoptosis in ACE-positive human MDA-MB-231 cells assessed as increase in apoptotic cells at 10 nM measured after 48 hrs by Annexin V-FITC/PI staining based fluorescence microscopy; assay type: functional, cell-based
MDA-MB-468 [14] = assay: Antitumor activity in human […] cells xenografted in Balb/c mouse assessed as tumor weight at 9.6 micromol/kg, ip measured after 28 days (reference value: 0.43 g); assay type: functional; conditions: dose 9.6 µmol/kg, time 28 day
HEK-293T [15] = assay: Antiproliferative activity against human HEK293T cells expressing ACE containing plasmid incubated for 48 hrs by MTT assay; assay type: functional, cell-based
[16] = Stability of the compound in rat plasma assessed as half life at 10 uM measured after 72 hrs by LC/MS analysis; assay type: ADME, cell-free
[17] = Acute toxicity in BALB/c mouse assessed as survival at 60 mg/kg, ip measured for 15 days; assay type: organism-based; conditions: in vivo, 360 h, time 15 day
Mus musculus [18] = assay: Toxicity in BALB/c mouse xenografted with human […] cells assessed as decrease in body weight at 9.6 micromol/kg, ip measured after 28 days relative to control; assay type: organism-based; parameters: scale not given: the % may be the effect or the level left; conditions: 672 h, at 9.6 µmol/kg, time 28 day
MDA-MB-231 [19] = assay: Antiproliferative activity against ACE-positive human MDA-MB-231 cells incubated for 48 hrs by MTT assay; assay type: functional, cell-based; conditions: MDA-MB-231, 48 h
[20] = target: Angiotensin-converting enzyme (Homo sapiens, UniProt P12821); assay: Binding affinity to human recombinant ACE protein assessed as dissociation constant incubated for 15 mins by […] binding analysis; conditions: read-out: Kd
Angiotensin-converting enzyme, sequence (P12821 whole entry): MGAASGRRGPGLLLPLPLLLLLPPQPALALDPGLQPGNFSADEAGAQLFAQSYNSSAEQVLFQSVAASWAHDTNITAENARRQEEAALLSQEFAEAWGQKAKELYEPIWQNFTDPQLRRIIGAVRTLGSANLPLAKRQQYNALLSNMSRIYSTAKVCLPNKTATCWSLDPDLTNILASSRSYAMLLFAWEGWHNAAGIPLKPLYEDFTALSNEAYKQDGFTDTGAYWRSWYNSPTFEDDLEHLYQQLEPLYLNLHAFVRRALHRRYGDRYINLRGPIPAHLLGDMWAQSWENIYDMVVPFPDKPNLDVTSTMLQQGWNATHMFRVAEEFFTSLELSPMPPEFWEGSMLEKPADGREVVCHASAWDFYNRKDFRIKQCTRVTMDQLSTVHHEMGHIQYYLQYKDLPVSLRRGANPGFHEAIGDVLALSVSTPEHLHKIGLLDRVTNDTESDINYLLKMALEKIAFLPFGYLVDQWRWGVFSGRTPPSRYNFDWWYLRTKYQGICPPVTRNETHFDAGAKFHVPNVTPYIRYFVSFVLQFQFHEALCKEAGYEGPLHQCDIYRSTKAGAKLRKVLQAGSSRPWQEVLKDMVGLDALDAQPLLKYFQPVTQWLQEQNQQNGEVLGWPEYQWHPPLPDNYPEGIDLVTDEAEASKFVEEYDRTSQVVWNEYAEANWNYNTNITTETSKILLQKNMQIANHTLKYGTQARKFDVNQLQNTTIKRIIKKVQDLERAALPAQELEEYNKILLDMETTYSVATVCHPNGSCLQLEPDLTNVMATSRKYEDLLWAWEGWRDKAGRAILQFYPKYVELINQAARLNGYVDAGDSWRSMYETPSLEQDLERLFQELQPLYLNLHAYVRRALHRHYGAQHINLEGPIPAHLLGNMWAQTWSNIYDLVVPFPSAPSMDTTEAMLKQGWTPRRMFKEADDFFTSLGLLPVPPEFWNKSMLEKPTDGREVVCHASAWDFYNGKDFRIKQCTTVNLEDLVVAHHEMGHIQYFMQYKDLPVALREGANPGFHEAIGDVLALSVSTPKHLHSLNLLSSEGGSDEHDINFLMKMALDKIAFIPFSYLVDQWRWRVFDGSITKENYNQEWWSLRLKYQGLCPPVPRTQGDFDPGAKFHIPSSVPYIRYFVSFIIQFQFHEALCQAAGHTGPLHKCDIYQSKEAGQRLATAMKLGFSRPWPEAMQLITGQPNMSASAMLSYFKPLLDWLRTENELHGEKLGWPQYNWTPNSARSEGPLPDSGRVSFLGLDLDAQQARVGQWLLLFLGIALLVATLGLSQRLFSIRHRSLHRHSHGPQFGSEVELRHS

Mus musculus [21] = assay: Toxicity in BALB/c mouse xenografted with human […] cells assessed as reduction in WBC count at 2.4 micromol/kg, ip measured after 28 days relative to control; assay type: organism-based; parameters: scale not given: the % may be the effect or the level left; conditions: 672 h, at 2.4 µmol/kg, time 28 day
MDA-MB-468 [22] = assay: Antitumor activity in human […] cells xenografted in Balb/c mouse assessed as reduction in tumor growth at 2.4 micromol/kg, ip measured after 28 days relative to control; assay type: functional; parameters: scale not given: the % may be the effect or the level left; conditions: dose 2.4 µmol/kg, time 28 day
[23] = Drug uptake in BALB/c mouse xenografted with human […] cells assessed as PTX level in lung at 17.6 micromol/kg, ip measured after 15 mins to 24 hrs; assay type: ADME, organism-based; conditions: in vivo, 0.25 h, dose 17.6 µmol/kg
[24] = Acute toxicity in BALB/c mouse assessed as rate of weight loss at 60 mg/kg, ip measured for 15 days; assay type: organism-based; conditions: in vivo, 360 h, time 15 day
[25] = Stability of the compound in rat plasma assessed as drug residual at 10 uM measured after 48 hrs by LC/MS analysis; assay type: ADME, cell-free; conditions: read-out: Stability
[26] = Acute toxicity in BALB/c mouse assessed as rate of weight loss at 100 mg/kg, ip measured for 15 days; assay type: organism-based; conditions: in vivo, 360 h, time 15 day
MDA-MB-468 [27] = assay: Potency index, ratio of PTX IC50 to test compound IC50 antiproliferative activity against ACE-positive human MDA-MB-468 cells incubated for 48 hrs by MTT assay; assay type: functional
[28] = Stability of the compound in PBS buffer assessed as half life at 10 uM measured after 72 hrs by LC/MS analysis; assay type: physicochemical
Mus musculus [29] = assay: Toxicity in BALB/c mouse xenografted with human […] cells assessed as reduction in WBC count at 9.6 micromol/kg, ip measured after 28 days relative to control; assay type: organism-based; parameters: scale not given: the % may be the effect or the level left; conditions: 672 h, at 9.6 µmol/kg, time 28 day
MDA-MB-468 [30] = assay: Antitumor activity in human […] cells xenografted in Balb/c mouse assessed as reduction in tumor growth at 9.6 micromol/kg, ip measured after 28 days relative to control; assay type: functional; parameters: scale not given: the % may be the effect or the level left; conditions: dose 9.6 µmol/kg, time 28 day
Mus musculus [31] = assay: Toxicity in BALB/c mouse xenografted with human […] cells assessed as decrease in body weight at 2.4 micromol/kg, ip measured after 28 days relative to control; assay type: organism-based; parameters: scale not given: the % may be the effect or the level left; conditions: 672 h, at 2.4 µmol/kg, time 28 day
HEK-293T [32] = assay: Antiproliferative activity against ACE-negative human HEK293T cells incubated for 48 hrs by MTT assay; assay type: functional, cell-based
HEK-293T [33] = assay: Potency index, ratio of PTX IC50 to test compound IC50 antiproliferative activity against ACE-negative human HEK293T cells incubated for 48 hrs by MTT assay; assay type: functional
MDA-MB-231 [34] = assay: Potency index, ratio of PTX IC50 to test compound IC50 antiproliferative activity against ACE-positive human MDA-MB-231 cells incubated for 48 hrs by MTT assay; assay type: functional

Structure (SMILES): CC[C@H](C)[C@H](NC(=O)[C@H](CCC(N)=O)NC(=O)[C@@H]1CCCN1C(=O)[C@H](CCCNC(=N)N)NC(=O)[C@@H]1CCCN1C(=O)[C@H](Cc1c[nH]c2ccccc12)NC(=O)[C@H](CCC(=O)O)NC(=O)CCC(=O)O[C@@H](C(=O)O[C@H]1C[C@@]2(O)[C@@H](OC(=O)c3ccccc3)[C@@H]3[C@]4(OC(C)=O)CO[C@@H]4C[C@H](O)[C@@]3(C)C(=O)[C@H](OC(C)=O)C(=C1C)C2(C)C)[C@@H](NC(=O)c1ccccc1)c1ccccc1)C(=O)N1CCC[C@H]1C(=O)N1CCC[C@H]1C(N)=O ({Paclitaxel(2'-O-succinyl)}-EWPRPQIPP-NH2)
- Drug uptake [1]: Active
- Activity [2]: Non-Toxic
- Activity [3]: Non-Toxic
- Activity [4]: 4.5%
- Drug uptake [5]: 10458 ng/g
- Activity (MDA-MB-468 [6]): inactive
- Activity (MDA-MB-468 [7]): Active
- Drug uptake [8]: Active
- Drug uptake [9]: 18067 ng/g
- IC50 (MDA-MB-468 [10]): 12.3 nM
- Drug uptake [11]: Active
- Activity (MDA-MB-468 [12]): 0.2 g
- Activity (MDA-MB-231 [13]): Active
- Activity (MDA-MB-468 [14]): 0.16 g
- Activity (HEK-293T [15]): Active
- half-life at 10 µM [16]: 5.82 h
- Activity [17]: Non-Toxic
- Activity (Mus musculus [18]): 6.4%
- IC50 (MDA-MB-231 [19]): 9.5 nM
- Kd [20]: 380 nM
- Activity (Mus musculus [21]): 17%
- Activity (MDA-MB-468 [22]): 54%
- Drug uptake [23]: Active
- Activity [24]: 1.9%
- remaining at 48 h, 10 µM [25]: 0.169%
- Activity [26]: 7.2%
- Ratio IC50 (MDA-MB-468 [27]): 4.1
- half-life at 10 µM [28]: 57.8 h
- Activity (Mus musculus [29]): 22%
- Activity (MDA-MB-468 [30]): 62%
- Activity (Mus musculus [31]): 2.8%
- IC50 (HEK-293T [32]): 616 nM
- Ratio IC50 (HEK-293T [33]): 91.9
- Ratio IC50 (MDA-MB-231 [34]): 3.1
